From patent US20100041665A1, “N-PHENYL-PRENYLAMINE DERIVATIVES FOR THE TREATMENT OF COGNITIVE, NEURODEGENERATIVE OR NEURONAL DISEASES OR DISORDERS” (NOSCIRA, S.A., priority 2006, published 2010) come the findings set out here.

In experiment [1] the target is Recombinant human glycogen synthase kinase 3 beta (Homo sapiens, UniProt P49841). Put plainly: GSK-3 beta inhibition assay. The experiment is classed as biochemical. Particulars: 0.5 h, percentage of enzyme activity; for remaining activity at 25 µM: compound at 25 μM; for remaining activity at 50 µM: compound at 50 μM. As for the experimental part: GSK-3 beta Inhibition Assay
Sequence of Recombinant human glycogen synthase kinase 3 beta (P49841 whole entry): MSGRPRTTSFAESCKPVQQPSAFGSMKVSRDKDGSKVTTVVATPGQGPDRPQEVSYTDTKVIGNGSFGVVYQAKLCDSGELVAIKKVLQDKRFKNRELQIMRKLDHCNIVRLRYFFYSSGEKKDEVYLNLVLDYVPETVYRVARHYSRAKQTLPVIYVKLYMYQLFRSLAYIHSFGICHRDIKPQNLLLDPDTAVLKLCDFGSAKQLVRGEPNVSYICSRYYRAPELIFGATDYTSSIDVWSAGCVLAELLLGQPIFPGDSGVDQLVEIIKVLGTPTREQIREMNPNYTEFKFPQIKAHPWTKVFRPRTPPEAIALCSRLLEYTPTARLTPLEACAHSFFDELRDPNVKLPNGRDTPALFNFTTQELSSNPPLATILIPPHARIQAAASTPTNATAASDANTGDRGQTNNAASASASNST
The GSK-3 beta activity of the compounds of formula (I) according to the present invention was determined by incubation of a mixture of recombinant human GSK-3 enzyme, a phosphate source and GSK-3 substrate in the presence and in the absence of the corresponding test compound, and by measuring the GSK-3 activity of this mixture. The compounds where tested at final concentrations of 25 and 50 μM.
Recombinant human glycogen synthase kinase 3 beta was assayed in MOPS 11 mM, pH 7.4, EDTA 0.2 mM, EGTA 1.25 mM, MgCl2 26.25 mM and sodium orthovanadate 0.25 mM in the presence of 62.5 μM of Phospho-Glycogen Synthase Peptide-2 (GS-2), 0.5 μCi gamma-^33P-ATP and unlabelled ATP at a final concentration of 12.5 μM. The final assay volume was 20 μl. After incubation for 30 minutes at 30° C., 15 μl aliquots were spotted onto P81 phosphocellulose papers. Filters were washed four times for at least 10 minutes each and counted with 1.5 ml of scintillation cocktail in a scintillation counter.
(§1) The compounds of formula (I) of the present invention where submitted to the above indicated assays, in order to determine both their GSK-3 inhibition activity and BACE activity inhibition. The results are indicated in Table I and Table II, in percentage of the respective enzyme activity.

For experiment [2], the target named is T1, rhBACE-1 β-Secretase recombinant human (Homo sapiens, UniProt P56817).
T1 construct: purchased R&D Systems 931-AS
T1 sequence (P56817 46-457 limits assumed): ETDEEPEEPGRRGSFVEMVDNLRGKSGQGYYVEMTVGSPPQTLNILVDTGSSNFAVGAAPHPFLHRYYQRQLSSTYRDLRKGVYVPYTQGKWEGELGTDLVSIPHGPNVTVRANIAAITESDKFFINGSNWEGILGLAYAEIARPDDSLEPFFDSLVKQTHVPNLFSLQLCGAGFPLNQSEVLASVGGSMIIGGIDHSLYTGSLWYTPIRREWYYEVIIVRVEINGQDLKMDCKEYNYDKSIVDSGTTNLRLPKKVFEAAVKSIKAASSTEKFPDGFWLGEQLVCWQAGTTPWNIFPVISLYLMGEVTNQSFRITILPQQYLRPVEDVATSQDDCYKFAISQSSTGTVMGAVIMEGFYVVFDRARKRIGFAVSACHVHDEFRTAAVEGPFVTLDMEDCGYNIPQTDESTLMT
The experiment is described as follows: BACE assay (FRET). It is filed as biochemical. Particulars: percentage of enzyme activity.
Text: The aim of this assay is to determine if a compound, either synthetic or of marine origin, is a BACE-1 inhibitor, to avoid the formation of Aβ. This assay is based on FRET technology (Fluorescence Resonance Energy Transfer). FRET is used to measure cleavage of a peptide substrate, among other uses. […] When a substrate peptide cleavage occurs, the energy balance is broken and all the donor fluorescence can be observed. The increase in fluorescence is linearly related to the rate of proteolysis (Gordon, G W et al., 1998). In this assay the reaction occurs between an enzyme, purified BACE-1, and a fluorogenic peptidic substrate who present the “Swedish mutation”. The peptide cleavage by BACE-1 produces fluorescence energy and enzymatic activity can be quantified.
The reagents which are used in this assay are the following: • rhBACE-1 β-Secretase recombinant human (R&D Systems. Ref. 931-AS). • Fluorogenic Peptide Substrate IV (R&D Systems. Ref. ES004). • Beta-SECRETASE INHIBITOR H-4848. (BACHEM. Ref. H-4848.0001). • Sodium acetate.
The assay is carried out in a 96 wells microplate. The final concentration of substrate is 3.5 μM per well, and the enzyme concentration is 0.5 μg/ml. The final volume of the assay is 100 μl per well and all reagents are diluted in Reaction Buffer. The compounds are tested at a concentration of 10^−5 and 10^−6 M. The control in the assay is the commercial inhibitor β-Secretase inhibitor H-4848 from BACHEM, which is tested at 300 nM. All the samples and controls are studied by duplicate.
The plate is mixed gently and changes in the fluorescence are measured using a fluorimeter plate reader, with 320 nm excitation filter and 405 nm emission filter. The temperature should be preferably maintained between 25 and 30° C. Measurements are carried out every ten minutes during an hour. The first measure is subtracted from the last to calculate the fluorescence increase, evaluating the enzymatic activity. The 100% activity is calculated as the mean of the results of wells without sample or inhibitor.
In the cases where abnormal effects in fluorescence were detected, BACE inhibition activity was assayed using BACE-1 (beta-Secretase) FRET ASSAY KIT (Invitrogen, Ref. P2985). Fluorescence was measured with a fluorimeter plate reader, with 544 nm excitation filter and 580 nm emission filter.
as §1

For `COC(=O)c1ccc(OC)c(N(CC=C(C)CCC=C(C)CCC=C(C)CCC=C(C)C)CC=C(C)CCC=C(C)CCC=C(C)CCC=C(C)C)c1` [Compound 35, 3-[Bis-(3,7,11,15-tetramethyl-hexadeca-2,6,10,14-tetraenyl)-amino]-4-methoxy-benzoic acid methyl ester], in experiment [1], the remaining activity (as a rule, the signal under treatment as a percentage of the control signal) at 25 µM came out at 105% and the remaining activity at 50 µM was 97.9%. Also, the “% of BACE activity” value in experiment [2] (compound at 1 μM) stood at 91 ± 9%. Further, in experiment [2] (compound at 10 μM), the “% of BACE activity” value is on record as 41 ± 14%.

`COC(=O)c1ccc(OC)c(NCC=C(C)CCC=C(C)COC2CCCCO2)c1` (stereo not shown) [Compound 36, 3-[3,7-Dimethyl-8-(tetrahydro-pyran-2-yloxy)-octa-2,6-dienylamino]-4-methoxy-benzoic acid methyl ester]: the remaining activity at 25 µM in experiment [1] stood at 79.7%. The remaining activity at 50 µM in experiment [1] stood at 80.1%. Moreover, the “% of BACE activity” value in experiment [2] (compound at 1 μM) is on record as 45 ± 12%; in experiment [2] (compound at 10 μM), 7 ± 7%.

In the case of `COC(=O)c1ccc(OC)c(N(CC=C(C)CCC=C(C)COC2CCCCO2)CC=C(C)CCC=C(C)COC2CCCCO2)c1` (stereo not shown) [Compound 37, 3-{Bis-[3,7-dimethyl-8-(tetrahydro-pyran-2-yloxy)-octa-2,6-dienyl]-amino}-4-methoxy-benzoic acid methyl ester], the remaining activity at 25 µM in experiment [1] worked out at 24.6%. The remaining activity at 50 µM in experiment [1] came out at 1.71%. Further, the “% of BACE activity” value in experiment [2] (compound at 1 μM) is 50 ± 4%; in experiment [2] (compound at 10 μM), 6.5 ± 1%.

In the case of `COc1ccc(C(=O)N2CCN(CC=Cc3ccccc3)CC2)cc1N(CC=C(C)CCC=C(C)C)CC=C(C)CCC=C(C)C` [Compound 38, {3-[Bis-(3,7-dimethyl-octa-2,6-dienyl)-amino]-4-methoxy-phenyl}-[4-(3-phenyl-allyl)-piperazin-1-yl]-methanone], the remaining activity at 25 µM in experiment [1] came to 23.6%. In addition, the remaining activity at 50 µM in experiment [1] was 2.51%. The “% of BACE activity” value in experiment [2] (compound at 1 μM) is 81.5 ± 9%; in experiment [2] (compound at 10 μM), 35 ± 10%.

For `COc1ccc(C(=O)N2CCN(CCO)CC2)cc1N(CC=C(C)CCC=C(C)C)CC=C(C)CCC=C(C)C` [Compound 39, {3-[Bis-(3,7-dimethyl-octa-2,6-dienyl)-amino]-4-methoxy-phenyl}-[4-(2-hydroxy-ethyl)-piperazin-1-yl]-methanone], in experiment [1], the remaining activity at 25 µM is 55.1% and the remaining activity at 50 µM worked out at 13.2%. In addition, in experiment [2] (compound at 1 μM), the “% of BACE activity” value is on record as 100%. The “% of BACE activity” value in experiment [2] (compound at 10 μM) came to 100%.

In the case of `CCC(C)Oc1ccc(C(=O)OC)cc1NCC=C(C)CCC=C(C)CCC=C(C)C` (stereo not shown) [Compound 40, 4-sec-Butoxy-3-(3,7,11-trimethyl-dodeca-2,6,10-trienylamino)-benzoic acid methyl ester], the remaining activity at 25 µM in experiment [1] is 111%. Further, in experiment [1], the remaining activity at 50 µM was found to be 99.4%. For the same compound, the “% of BACE activity” value in experiment [2] (compound at 1 μM) and in experiment [2] (compound at 10 μM) was 100% each time.

As to `COc1ccc(C(=O)NC(=N)n2cccn2)cc1N(C/C=C(\C)CCC=C(C)C)C/C=C(\C)CCC=C(C)C` [Compound 41], the remaining activity at 25 µM in experiment [1] amounted to 88.9%. Besides, the remaining activity at 50 µM in experiment [1] came out at 98.4%. Moreover, the “% of BACE activity” value in experiment [2] (compound at 1 μM) was 73 ± 2%; in experiment [2] (compound at 10 μM), 75 ± 9%.

Consider `CCCOc1ccc(C(=O)OC)cc1NC/C=C(\C)CC/C=C(\C)CCC=C(C)C` [Compound 43], for which, in experiment [1], the remaining activity at 25 µM is 103% and the remaining activity at 50 µM worked out at 98.2%. The “% of BACE activity” value in experiment [2] (compound at 1 μM) was 88.3 ± 3.8%. For the same compound, the “% of BACE activity” value in experiment [2] (compound at 10 μM) turned out to be 27.5 ± 9.2%.

As for `COc1ccc(C(=O)NCCc2c[nH]cn2)cc1N(C/C=C(\C)CCC=C(C)C)C/C=C(\C)CCC=C(C)C` [Compound 46], in experiment [1], the remaining activity at 25 µM was 27.9% and the remaining activity at 50 µM was found to be 19.8%. In addition, the “% of BACE activity” value in experiment [2] (compound at 1 μM) is 122.5 ± 23.3%. Further, the “% of BACE activity” value in experiment [2] (compound at 10 μM) was 115.5 ± 29%.

Take `CC(C)=CCC/C(C)=C/CC/C(C)=C/CNc1cc(C(=O)O)ccc1O` [Compound 48]: the remaining activity at 25 µM in experiment [1] turned out to be 105%. In addition, the remaining activity at 50 µM in experiment [1] turned out to be 97.9%. Moreover, the “% of BACE activity” value in experiment [2] (compound at 1 μM) is on record as 100%; in experiment [2] (compound at 10 μM) it was 36.5 ± 0.7%.
